Data set [1] has as its target Human immunodeficiency virus type 1 protease (Human immunodeficiency virus 1, UniProt Q72874). The data set can be described thus: In vitro inhibitory activity against HIV-1 protease was evaluated.
Data set [2] deals with Human immunodeficiency virus 1. Kind of data set: Inhibition of viral spread in MT-4 human lymphoid cells infected with the HIV-IIIb isolate. Conditions: Human immunodeficiency virus 1, lymphoid; read-out: CIC95. It counts as functional.
Data set [3] can be described thus: Maximum plasma concentration in dog. Format: ADME, organism-based, Canis lupus familiaris.
Data set [4] in a line: Oral bioavailability in dog. Conditions: in vivo. It counts as ADME, organism-based, Canis lupus familiaris.
Data set [5] is described as follows: Time taken for maximum plasma concentration in dog. Format: ADME, organism-based, Canis lupus familiaris.

The IC50 is the concentration that gives 50% inhibition. On to `CC(C)(C)NC(=O)[C@@H]1CN(C(=O)OCc2ccccc2)CCN1C[C@@H](O)[C@H](Cc1ccccc1)NC(=O)O[C@H]1CCOC1`, for which half-maximal inhibition in data set [1] (IC50) required 18.9 nM. Same read-out and setting: with `CC(C)(C)NC(=O)[C@@H]1CN(Cc2ccc(O)cc2)CCN1C[C@@H](O)[C@H](Cc1ccccc1)NC(=O)O[C@H]1CCOC1` the figure was 153 nM; with `CC(C)(C)NC(=O)[C@@H]1CN(CCCc2ccccc2)CCN1C[C@@H](O)[C@H](Cc1ccccc1)NC(=O)O[C@H]1CCOC1`, 175 nM. As to `CC(C)(C)NC(=O)[C@@H]1CN(Cc2cccnc2)CCN1C[C@@H](O)[C@H](Cc1ccccc1)NC(=O)O[C@H]1CCOC1`, the IC95 in data set [2] was found to be 1500 nM. Moreover, the IC50 in data set [1] worked out at 676 nM. Turning to `CC(C)(C)NC(=O)[C@@H]1CN(Cc2ccncc2)CCN1C[C@@H](O)[C@H](Cc1ccccc1)NC(=O)O[C@H]1CCOC1`, in data set [2], the IC95 amounted to 1500 nM. This compound also had an IC50 in data set [1] of 293 nM.

With `CC(C)(C)NC(=O)[C@@H]1CN(Cc2ccccc2)CCN1C[C@@H](O)[C@H](Cc1ccccc1)NC(=O)O[C@H]1CCOC1`, the IC50 in data set [1] is 102 nM. Still for that read-out and setting: to `CC(C)(C)NC(=O)[C@@H]1CN(C(=O)OCc2ccccc2)CCN1C[C@H](O)[C@H](Cc1ccccc1)NC(=O)O[C@H]1CCOC1` belongs 12000 nM; to `CC(C)(C)NC(=O)[C@@H]1CN(C(=O)c2cccnc2)CCN1C[C@@H](O)[C@H](Cc1ccccc1)NC(=O)O[C@H]1CCOC1`, 371 nM. What is called Cmax is the highest concentration seen after dosing. For `CC(C)[C@@H]1[C@H](OC(=O)N[C@@H](Cc2ccccc2)[C@H](O)CN2CCN(Cc3ccncc3)C[C@H]2C(=O)NC(C)(C)C)CCS1(=O)=O`, the IC95 in data set [2] amounted to 200 nM. For the same compound, the peak level in data set [3] (Cmax) was 6.5 µM. On to `CC(C)(C)NC(=O)[C@@H]1CN(Cc2ccccc2O)CCN1C[C@@H](O)[C@H](Cc1ccccc1)NC(=O)O[C@H]1CCOC1`, for which, in data set [1], 102 nM corresponded to half-maximal inhibition (IC50). `Cc1cc(C)cc(CN2CCN(C[C@@H](O)[C@H](Cc3ccccc3)NC(=O)O[C@@H]3CCS(=O)(=O)[C@@H]3C(C)C)[C@H](C(=O)NC(C)(C)C)C2)c1`: the IC95 in data set [2] turned out to be 100 nM. The same measure, in the same setting: with `Cc1ccc(CN2CCN(C[C@@H](O)[C@H](Cc3ccccc3)NC(=O)O[C@@H]3CCS(=O)(=O)[C@@H]3C(C)C)[C@H](C(=O)NC(C)(C)C)C2)cn1` the figure was 100 nM. As for `CC(C)(C)NC(=O)[C@@H]1CN(Cc2cccc(O)c2)CCN1C[C@@H](O)[C@H](Cc1ccccc1)NC(=O)O[C@H]1CCOC1`, the IC95 in data set [2] came to 400 nM. The compound further showed an IC50 in data set [1] of 482 nM.

The bioavailability is dose-corrected exposure relative to a reference, in per cent. Read a high bioavailability as much systemic uptake. Turning to `Cc1cc(CN2CCN(C[C@@H](O)[C@H](Cc3ccccc3)NC(=O)O[C@@H]3CCS(=O)(=O)[C@@H]3C(C)C)[C@H](C(=O)NC(C)(C)C)C2)cc(Cl)n1`, the IC95 in data set [2] is 50 nM. The bioavailability in data set [4] turned out to be 34.8%. In turn, `CC(C)(C)NC(=O)[C@@H]1CN(C(=O)c2ccccc2)CCN1C[C@@H](O)[C@H](Cc1ccccc1)NC(=O)O[C@H]1CCOC1` came in with an IC50 in data set [1] of 414 nM. Take `CC(C)[C@@H]1[C@H](OC(=O)N[C@@H](Cc2ccccc2)[C@H](O)CN2CCN(Cc3ccc4ccccc4c3)C[C@H]2C(=O)NC(C)(C)C)CCS1(=O)=O`: the IC95 in data set [2] came out at 50 nM. For orientation: Tmax means the time from dosing to the highest level. As to `CC(C)[C@@H]1[C@H](OC(=O)N[C@@H](Cc2ccccc2)[C@H](O)CN2CCN(Cc3cccc(O)c3)C[C@H]2C(=O)NC(C)(C)C)CCS1(=O)=O`, in data set [2], the IC95 turned out to be 100 nM. The time of peak concentration (Tmax) in data set [5] is 25 min. The compound further came in with a Cmax in data set [3] of 4 µM.

Consider `CC(C)(C)NC(=O)[C@@H]1CN(CCc2ccccc2)CCN1C[C@@H](O)[C@H](Cc1ccccc1)NC(=O)O[C@H]1CCOC1`, for which half-maximal inhibition in data set [1] (IC50) was put at 478 nM. On the same count and under the same terms, to `CC(C)(C)NC(=O)[C@@H]1CN(C(=O)c2ccccn2)CCN1C[C@@H](O)[C@H](Cc1ccccc1)NC(=O)O[C@H]1CCOC1` belongs 257 nM; to `CC(C)(C)NC(=O)[C@@H]1CN(C(=O)c2ccncc2)CCN1C[C@@H](O)[C@H](Cc1ccccc1)NC(=O)O[C@H]1CCOC1`, 132 nM. In the case of `CC(C)[C@@H]1[C@H](OC(=O)N[C@@H](Cc2ccccc2)[C@H](O)CN2CCN(Cc3cc(Cl)cc(Cl)c3)C[C@H]2C(=O)NC(C)(C)C)CCS1(=O)=O`, in data set [2], the IC95 amounted to 100 nM. As to `CC(C)(C)NC(=O)[C@@H]1CN(Cc2ccccn2)CCN1C[C@@H](O)[C@H](Cc1ccccc1)NC(=O)O[C@H]1CCOC1`, the IC50 in data set [1] is 957 nM.

Source of the values: ChEMBL document CHEMBL1127978, “A new hydroxyethylamine class of HIV-1 protease inhibitors with high antiviral potency and oral bioavailability” (Bioorg Med Chem Lett, 1994).
